The values that follow come from patent US10308617B2, “Triazole benzamide derivatives and the compositions and methods of treatment regarding the same” (An2H Discovery Limited, priority 2016, dated 2019).

Parkin, sequence (O60260 whole entry, other chains not shown): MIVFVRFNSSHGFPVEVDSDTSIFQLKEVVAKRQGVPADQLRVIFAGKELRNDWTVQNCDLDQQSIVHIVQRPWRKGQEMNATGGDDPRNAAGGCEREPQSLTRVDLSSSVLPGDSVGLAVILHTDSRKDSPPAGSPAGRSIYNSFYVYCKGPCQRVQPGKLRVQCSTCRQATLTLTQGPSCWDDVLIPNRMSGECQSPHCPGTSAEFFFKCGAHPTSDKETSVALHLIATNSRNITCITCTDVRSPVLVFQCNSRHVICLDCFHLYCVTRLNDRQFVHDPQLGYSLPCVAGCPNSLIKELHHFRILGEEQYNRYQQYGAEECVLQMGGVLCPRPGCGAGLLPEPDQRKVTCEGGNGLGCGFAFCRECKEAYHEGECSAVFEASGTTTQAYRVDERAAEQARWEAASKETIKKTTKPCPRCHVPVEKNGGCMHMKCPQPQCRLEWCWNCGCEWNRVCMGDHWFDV

The first assay has as its target Parkin (Homo sapiens, UniProt O60260). Briefly: Parkin pUB Auto-ubiquitinylation Assay (TR-FRET).
Settings: not given
It counts as biochemical. From the text: A Parkin pUB Auto-ubiquitinylation Assay is used to evaluate a compound's potency to activate Parkin's ability to Auto-ubiquitinylate itself.
The principle of this assay is that the E3 Ligase Parkin catalyzes the transfer of Ubiquitin to target proteins, but also has the ability to auto-ubiquitinylate itself. The phospho-Ubiquition (pUb) added to the assay alters the Parkin to a state where small molecule activators can enable the Parkin to auto-ubiquitinylate though the E1-E2 cascade reaction. The use of a Eu cryptate Ubiquition and anti 6His-d2 that binds to the His tagged Parkin will give a signal when the Eu cryptate Ubiquition is auto-ubiquitinylate onto the Parkin which can be monitored by TR-FRET.
Similar to the Activity-based probe assay in Example 2, screening for activating compounds can be distinguished from the controls as follows: • 100% activation signal=pUb activated Parkin+40 nM control activator in DMSO. • 0% activation signal=pUb activated Parkin+DMSO only. • Parkin activators can be identified by an increase of the 0% activation signal TR-FRET signal. Materials: • Assay Plate: White 384 well plate (Corning 3572) • Enzyme 1: E1 (Ubiquitin-activating enzyme/UBE1 Boston Biochem E-305) • Enzyme 2: E2 (UBcH7/Ube2L3 Boston Biochem E2-640) • Enzyme 3: Parkin-His tagged 203 μM (10.5 mg/ml) • pUb: Phospho-Ubiquitin (S65) (Boston Biochem U-102) • Eu Cryptate Reagent: Ubiquitin Eu (CisBio 61UBIKLA) • DMSO: DMSO (Sigma-34869-2.5L) • Reaction Buffer: 50 mM HEPES, 50 mM NaCl, 1 mM MgCl2, 0.005% Tween 20, 0.1% PF-127 (Fisher Scientific 50-310-494), pH 8.5 • Detection Buffer: 50 mM HEPES, 50 mM NaCl, 800 mM KF, 5 mM EDTA, 0.005% Tween 20, 0.1% PF-127, pH 8.5 • Detection Reagent Z: 13.4 nM Anti-6His-d2 in detection buffer • d2 Reagent: Anti-6His-d2 (CisBio 61HISDLA)
Enzyme Reaction (15 min pre-incubation with Parkin, pUb and activator only) • Parkin: 196 nM • pUb: 196 nM • DMSO: 1% DMSO • E1: 5 nM • E2: 50 nM • Ubiquitin Eu: 8.8 nM • Reaction time: 120 minutes • Temperature: 22° C. • Total volume: 10 μl reaction
Take 10 μl of Enzyme Reaction above and add 10 μl detection Reagent Z under the following conditions:
Assay Procedure: • 1) Load assay plate wells with 4.9 μl 400.0 nM Parkin, 400 nM pUb in reaction buffer by use of Eppendorf 12-channel pipette. • 2) Deliver 0.1 μl 100× activator candidates in DMSO by use of Echo 555 compound dispenser. Highest 100× concentration=100 μm and then twofold dilutions. Add each compound and control in duplicate wells. • 3) Spin 1000 rpm, 2 minutes, at room temp. • 4) Incubate plate for 15 minutes at room temp. • 5) Add 5 μl 10 nM E1, 100 nM E2, 17.6 nM Ubiquitin Eu and 2 mM ATP in Reaction Buffer by use of Eppendorf 12-channel pipette. • 6) Spin 1000 rpm, 2 minutes, at room temp. • 7) Incubate plate for 120 minutes at room temp. • 8) Add 10 μl 13.4 nM anti his d2 in detection buffer by use of Eppendorf 12-channel pipette. • 9) Spin 1000 rpm, 2 minutes, at room temp. • 10) Incubate plate for 120 minutes at room temp. • 11) Read plates on Perkin Elmer Envision instrument with the following parameters: • LANCE dual laser protocol loaded into the Envision® software • Top Mirror: LANCE/DELFIA Duel/Bias (Bar code 446) • Emission Filter: APC 665 EM (Bar code 205) • 2nd Emission Filter: Europium 615 EM (Bar code 203) • Read 655 nm (channel 1) and 615 nm (channel 2) wavelengths on Envision®
Data Analysis: The Data can be read in CSV files. There are two tables in those CSV files, which are the values of 655 nm (channel 1) and 615 nm (channel 2) wavelengths respectively. The data is converted to an HTRF Ratio=(Channel 1/Channel 2)*10,000
The average of all the 0 uM controls (DMSO only)=BKGD (Background—0% activation). Subtract BKGD from each HTRF Ratio value=HTRF-BKGD. The average of all the […] control activator in DMSO controls=Max (100% activation). The following equation is then used to calculate % Activation for each well/candidate as follows: % Activation=(HTRF-BKGD/Max)*100. […]
Background: In TR-FRET formats the signal depends on donor and acceptor labels being close together.
Consider `O=C(Nc1nc(NC(=O)c2ccccc2)n(-c2ccccc2)n1)c1ccccc1` [Compound A, N,N′-(1-phenyl-1H-1,2,4-triazole-3,5-diyl)dibenzamide], for which the “Parkin activity in an auto-ubiquitination assay” value is reported as “increases”.

`O=C(/C=C/c1ccccc1)Nc1nc(NC(=O)c2ccccc2)nn1-c1ccccc1` [Compound C, N-(5-cinnamamido-1-phenyl-1H-1,2,4-triazol-3-yl)benzamide]: the “Parkin activity in an auto-ubiquitination assay” value is “increases”.

The same assay, now with this note: Parkin activation, pUb activated Parkin; read-out: Auto-ubiq EC50 (μM) [Example 3].
As usually defined, the EC50 is the concentration that produces a half-maximal response. In the case of `O=C(Nc1nc(Nc2cc(N3CCCC3)nc3ccccc23)n(-c2ccccc2)n1)c1ccccc1` [Compound A1], the EC50 is above 40 µM.

On to `O=C(Nc1nc(NC(=O)c2cc3ccccc3s2)n(-c2ccccc2)n1)c1ccccc1` [Compound A2], for which the EC50 is above 40 µM.

Consider `O=C(Nc1nc(NC(=O)c2ccccc2)n(-c2ccccc2)n1)c1ccccc1` [Compound A, N,N′-(1-phenyl-1H-1,2,4-triazole-3,5-diyl)dibenzamide], for which the EC50 came out at 2.3 µM.

Turning to `O=C(Nc1nc(Nc2nc(N3CCCC3)c3ccccc3n2)n(-c2ccccc2)n1)c1ccccc1` [Compound B1], the 50% effective concentration (EC50) is above 40 µM.

For `O=C(Nc1nc(NC(=O)c2ccc3ccccc3n2)n(-c2ccccc2)n1)c1ccccc1` [Compound B2], the EC50 is above 40 µM.

Take `CC(=O)Nc1nc(NC(C)=O)n(-c2ccccc2)n1` [Compound B]: the EC50 is above 40 µM.

With `O=C(Nc1nc(Nc2ncnc3ccccc23)n(-c2ccccc2)n1)c1cccs1` [Compound C1], the EC50 is above 100 µM.

As to `Cc1ccccc1C(=O)Nc1nc(NC(=O)/C=C/c2ccccc2)n(-c2ccccc2)n1` [Compound C2], the EC50 was above 40 µM.

As for `O=C(/C=C/c1ccccc1)Nc1nc(NC(=O)c2ccccc2)nn1-c1ccccc1` [Compound C, N-(5-cinnamamido-1-phenyl-1H-1,2,4-triazol-3-yl)benzamide], the EC50 is above 40 µM.

For the compound `CN1CCC(C(=O)Nc2nc(Nc3ncnc4ccccc34)n(-c3ccccc3)n2)CC1` [Compound D1], the EC50 is above 40 µM.

`O=C(Nc1nc(NC(=O)c2ccccc2)n(-c2ccc3ccccc3n2)n1)c1ccccc1` [Compound D2]: the EC50 is above 40 µM.

As to `O=C(Nc1nc(Nc2nc(O)nc3ccccc23)n(-c2ccccc2)n1)c1ccccc1` [Compound E1], the EC50 is above 40 µM.

For `O=C(Nc1nc(NC(=O)c2ccccc2)n(-c2ccc3c(c2)OCCO3)n1)c1ccccc1` [Compound E2], the EC50 is above 40 µM.

Turning to `O=C(Nc1nc(NC(=O)c2ccccc2)n(-c2ccc(I)cc2)n1)c1ccccc1` [Compound E, N-[5-benzamido-1-(4-iodophenyl)-1,2,4-triazol-3-yl]benzamide], the EC50 is above 40 µM.

As to `CCN(CC)c1cc(Nc2nc(NC(=O)c3ccccc3)nn2-c2ccccc2)ncn1` [Compound F1], the EC50 is above 40 µM.

Regarding `COc1ccc(-n2nc(NC(=O)c3ccccc3)nc2NC(=O)c2ccccc2)cc1` [Compound F2], the EC50 is above 40 µM.

For the compound `Cc1ccccc1C(=O)Nc1nc(NC(=O)c2ccccc2C)n(-c2ccccc2)n1` [Compound F, 2-methyl-N-[5-[(2-methylbenzoyl)amino]-1-phenyl-1,2,4-triazol-3-yl]benzamide], the EC50 was above 40 µM.

Consider `O=C(Nc1nc(Nc2cc(N3CCCC3)ncn2)n(-c2ccccc2)n1)c1ccccc1` [Compound G1], for which the EC50 is above 40 µM.

As to `O=C(Nc1nc(NC(=O)c2cccs2)nn1-c1ccccc1)c1ccccc1` [Compound G2], the EC50 is above 40 µM.

Consider `O=C(Nc1nc(Nc2ccncn2)n(-c2ccccc2)n1)c1ccccc1` [Compound H1], for which the EC50 was above 40 µM.

Take `Cc1ccccc1C(=O)Nc1nc(NC(=O)c2ccccc2)n(-c2ccccc2)n1` [Compound H]: the EC50 was above 40 µM.

With `O=C(Nc1nc(Nc2ccnc3ccccc23)n(-c2ccccc2)n1)c1ccccc1` [Compound I1], the EC50 was above 40 µM.

Regarding `O=C(Nc1nc(NC(=O)c2ccccc2)n(C2CCOCC2)n1)c1ccccc1` [Compound I2], the EC50 is above 40 µM.

With `Nc1nc(Nc2nc(NC(=O)c3ccccc3)nn2-c2ccccc2)c2ccccc2n1` [Compound J1], the EC50 is above 40 µM.

`O=C(Nc1nc(NC(=O)c2ccccc2)n(-c2ccc3ncccc3c2)n1)c1ccccc1` [Compound J2]: the EC50 was above 40 µM.

On to `CC(C)C(=O)Nc1nc(Nc2ncnc3ccccc23)n(-c2ccccc2)n1` [Compound K1], for which the EC50 was above 40 µM.

`Cc1ccccc1C(=O)Nc1nc(NC(=O)c2cccs2)nn1-c1ccccc1` [Compound K2]: the EC50 is above 40 µM.

In the case of `Cc1ccccc1C(=O)Nc1nc(NC(=O)c2ccccc2)nn1-c1ccccc1` [Compound K, N-(5-benzamido-2-phenyl-1,2,4-triazol-3-yl)-2-methyl-benzamide], the EC50 is above 40 µM.

On to `C/C=C/C(=O)Nc1nc(Nc2ncnc3ccccc23)n(-c2ccccc2)n1` [Compound L1], for which the EC50 is above 40 µM.

Turning to `C=CC(=O)Nc1nc(NC(=O)c2ccccc2)nn1-c1ccccc1` [Compound L2], the EC50 was above 40 µM.

For the compound `O=C(Nc1nc(Nc2ncnc3ccccc23)n(-c2ccccc2)n1)c1ccccc1` [Compound L, N-[1-phenyl-5-(quinazolin-4-ylamino)-1,2,4-triazol-3-yl]benzamide], the EC50 is above 40 µM.

With `C=C(C)C(=O)Nc1nc(Nc2ncnc3ccccc23)n(-c2ccccc2)n1` [Compound M1], the EC50 was above 40 µM.

Take `O=C(Nc1nc(NC(=O)c2nc3ccccc3s2)n(-c2ccccc2)n1)c1ccccc1` [Compound M2]: the EC50 was above 40 µM.

Regarding `Nc1nc(Nc2nc(NC(=O)c3ccccc3)nn2-c2ccccc2)nc2ccccc12` [Compound N1], the 50% effective concentration (EC50) was above 40 µM.

With `O=C(Nc1nc(Nc2nc(O)c3ccccc3n2)n(-c2ccccc2)n1)c1ccccc1` [Compound O1], the concentration for a half-maximal effect (EC50) was above 40 µM.

Regarding `O=C(Nc1nc(NC(=O)c2ccccc2)n(-c2cccc3cccnc23)n1)c1ccccc1` [Compound O2], the EC50 is above 40 µM.

As for `O=C(Nc1nc(NC(=O)c2ccccc2)n(-c2cccc3ncccc23)n1)c1ccccc1` [Compound P2], the EC50 was above 40 µM.

As to `Cc1ccccc1C(=O)Nc1nc(-c2ccccn2)nn1-c1ccccc1` [Compound Q2], the EC50 was above 40 µM.

In the case of `Cc1ccccc1C(=O)Nc1nc(Nc2ncnc3ccccc23)n(-c2ccccc2)n1` [Compound R2], the concentration for a half-maximal effect (EC50) is above 40 µM.

As to `Cc1ccccc1C(=O)Nc1nc(-c2ccncc2)nn1-c1ccccc1` [Compound S2], the EC50 is above 40 µM.

For `Cc1ccccc1C(=O)Nc1nc(-c2cccnc2)nn1-c1ccccc1` [Compound T2], the EC50 is above 40 µM.

On to `O=C(/C=C/c1ccccc1)Nc1nc(NC(=O)c2ccccc2)nn1-c1ccccn1` [Compound U1], for which the EC50 was above 40 µM.

`c1ccc(-n2nc(-c3ccccn3)nc2Nc2ncnc3ccccc23)cc1` [Compound U2]: the EC50 was above 40 µM.

Regarding `O=C(Nc1nc(NC(=O)c2cccc([N+](=O)[O-])c2)n(-c2ccccc2)n1)c1ccccc1` [Compound V1], the EC50 is above 40 µM.

As for `Cc1ccccc1C(=O)Nc1nc(C2CCOCC2)nn1-c1ccccc1` [Compound V2], the EC50 was above 40 µM.

With `O=C(Nc1nc(NC(=O)c2ccco2)n(-c2ccccc2)n1)c1ccccc1` [Compound W1], the EC50 is above 40 µM.

For `Cc1ccccc1C(=O)Nc1nc(NC(=O)c2ccccc2C)n(C(C)C)n1` [Compound W2], the EC50 is above 40 µM.
